Molecules are shown by their SMILES.

One assay concerns Ileum. The assay is described as follows: Spasmolytic activity in guinea pig ileum. The class given is functional, tissue-based. The following applies: Cavia porcellus.
Assay [1] deals with Mus musculus. The assay is described as follows: Antinociceptive activity in mouse at 2 mg/kg, ip by writhing test. The class given is functional. As to conditions: route intraperitoneal.
The species entered for the next assay is Rattus norvegicus. The assay is described as follows: Increase in dopamine level in rat striatum by microdialysis assay (reference value: 4.2 nM). Type of assay: functional.
Another assay concerns the target D(3) dopamine receptor (Homo sapiens, UniProt P35462). The assay is described as follows: Agonist activity at dopamine D3 receptor (unknown origin).
Assay [2] deals with Mus musculus. The assay is described as follows: Antinociceptive activity in mouse at 3 mg/kg, ip by writhing test. The class given is functional. The following applies: route intraperitoneal.
The nature of assay [3]: Stimulation of dopaminergic neurons in rat posterior ventral tegmental area relative to ethanol. Type of assay: functional.

D(3) dopamine receptor, sequence (P35462 whole entry): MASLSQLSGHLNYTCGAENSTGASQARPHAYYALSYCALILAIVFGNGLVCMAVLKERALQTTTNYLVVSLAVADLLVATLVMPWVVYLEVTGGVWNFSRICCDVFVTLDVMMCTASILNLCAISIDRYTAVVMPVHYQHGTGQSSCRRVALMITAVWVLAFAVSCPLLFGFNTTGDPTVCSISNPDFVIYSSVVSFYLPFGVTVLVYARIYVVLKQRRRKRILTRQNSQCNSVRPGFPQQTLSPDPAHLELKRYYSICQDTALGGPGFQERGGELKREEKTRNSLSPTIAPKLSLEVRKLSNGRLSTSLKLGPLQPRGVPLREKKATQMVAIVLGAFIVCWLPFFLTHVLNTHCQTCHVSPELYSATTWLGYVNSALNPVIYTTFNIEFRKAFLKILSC

Compound `COc1ccc(-c2cc(=O)c3c(O)cc(O)cc3o2)cc1` [ACACETIN] registered a 50% inhibitory concentration (IC50) in the assay with Ileum of 1100 nM. In the assay on Mus musculus [1], this compound returned an Activity of 50%.
In turn, `C[C@@H]1NCCc2cc(O)c(O)cc21` gave an Activity in the assay listed under Rattus norvegicus of 21.5 nM. Further, the affinity at D(3) dopamine receptor corresponds to a Ki of 500 nM.
For the compound `C[C@H]1[C@H](C)CC[C@]2(C(=O)O)CC[C@]3(C)C(=CC[C@@H]4[C@@]5(C)CC[C@H](O)C(C)(C)[C@@H]5CC[C@]43C)[C@H]12` [URSOLIC ACID], the Activity in the assay on Mus musculus [2] turned out to be 50%.
Take `CC1NCCc2cc(O)c(O)cc21` (configuration not stated): the “fold change (FC)” value in assay [3] is listed as 1000000.
`C[C@H]1NCCc2cc(O)c(O)cc21` registered an Activity in the assay filed under Rattus norvegicus of 300 nM.

Source of the values: ChEMBL document CHEMBL3124851, “A perspective on natural products research and ethnopharmacology in Mexico: the eagle and the serpent on the prickly pear cactus” (J Nat Prod, 2014).
